Assay results from patent US20260217863A1, “ANTIBODY OR PEPTIDE BINDING SPECIFICALLY TO RNASE A, IMMUNOASSAY DEVICE AND METHOD FOR DETECTING RNASE A, AND METHOD FOR COLLECTING RNASE A” (UIF (University Industry Foundation), Yonsei University, priority 2022, published 2026).
Where no end group is shown, it is not given here.

Target: T1, RNase A (Bos taurus, UniProt P61823)
T1 sequence (P61823 27-150): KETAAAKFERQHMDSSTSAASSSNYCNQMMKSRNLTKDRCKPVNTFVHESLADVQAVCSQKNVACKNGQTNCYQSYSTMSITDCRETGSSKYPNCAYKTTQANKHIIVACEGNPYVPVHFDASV
Assay: cCMP hydrolysis assay of RNase A inhibition (absorbance 286 nm)
Type: biochemical, bovine
Parameters: Ribonuclease A (Type II-A) from bovine pancreas; purchased Sigma-Aldrich Korea; host or cells: bovine pancreas
Settings: inhibitor 0.1 nM to 1 μM, linear regression
Procedure: The analysis of RNase A activity inhibition based on 2′,3′-cyclic CMP (cCMP) was performed by measuring the absorbance of cCMP at a wavelength of 286 nm. A mixture was prepared by combining Tris-acetate buffer (500 mM, pH=6.5, 200 μL), EDTA (5 mM, 200 μL), 2′,3′-cCMP (10 mM, 100 μL), RNase A (10 μg/mL, 100 μL), Fv variant (or synthetic peptides in the concentration range of 0.1 nM-1 μM), and DW (filled up to 1000 μL). The absorbance at 286 nm was measured using a Lamda35 UV-VIS spectrophotometer (Perkin-Elmer, MA, USA). The reaction was initiated by adding RNase A to the mixture, and the absorbance was measured every 3 minutes for a total of 30 minutes.
RNase A is known to degrade RNA by cleaving the phosphodiester bonds between nucleotides. The cleavage of the phosphodiester bonds occurs through a two-step reaction: (1) the formation of a […] and (2) the subsequent degradation of a 2′,3′-cyclic phosphate intermediate. […] Specifically, it was utilized that the absorbance at 286 nm quantitatively increases as 3′-CMP increases due to the hydrolysis of cCMP, as shown in FIG. 13. […] The inhibition curves of the Fv antibodies were plotted linearly, and the IC50 values were calculated by linear regression, as shown in FIG. 15. […]
The analysis of RNase A activity inhibition based on 2′,3′-cyclic CMP (cCMP) was performed by measuring the absorbance of cCMP at a wavelength of 286 nm. […] The absorbance at 286 nm was measured using a Lamda35 UV-VIS spectrophotometer (Perkin-Elmer, MA, USA). The reaction was initiated by adding RNase A to the mixture, and the absorbance was measured every 3 minutes for a total of 30 minutes.
RNase A is known to degrade RNA by cleaving the phosphodiester bonds between nucleotides. […] Specifically, it was utilized that the absorbance at 286 nm quantitatively increases as 3′-CMP increases due to the hydrolysis of cCMP, as shown in FIG. 13. […] The inhibition curves of the Fv antibodies were plotted linearly, and the IC50 values were calculated by linear regression, as shown in FIG. 15.

IC50 [nM] | Sequence
607 | CGPDSDVMTDF [Peptide-1]
356 | DGTAKKSRKDD [Peptide-3]

Sequence | IC50 [nM]
YGPVGRVKRDD [Peptide-2] | 373
